Legend:
[1] = Inhibition of NF-kappaB expressed in human HEK293 cells by luciferase reporter gene based luminometric analysis; assay type: cell-based
RAW264.7 [2] = experiment: Inhibition of iNOS in mouse RAW264.7 cells assessed as inhibition of LPS-induced nitrite production at 50 uM treated 30 mins before LPS challenge measured after 24 hrs by Griess method; assay type: functional
[3] = target: NAD(P)H dehydrogenase [quinone] 1 (Mus musculus) (UniProt Q64669); details: Hepa-1c1c7
[4] = Cytotoxicity against mouse Hepa-1c1c7 cells at 50 uM after 48 hrs by crystal violet staining; assay type: cell-based; details: hepa-1c1c7, 48 h
RAW264.7 [5] = experiment: Inhibition of iNOS in mouse RAW264.7 cells assessed as inhibition of LPS-induced nitrite production treated 30 mins before LPS challenge measured after 24 hrs by Griess method; assay type: functional, cell-based
cells = details: Mus musculus, Hepa-1c1c7, 48 h
[6] = target: T1, Ribosyldihydronicotinamide dehydrogenase [quinone] (Homo sapiens, UniProt P16083); experiment: Inhibition of human QR2 expressed in Escherichia coli BL21 (DE3) using MTT and NMeH as substrate assessed as formazan formation
T1 sequence (P16083 whole entry): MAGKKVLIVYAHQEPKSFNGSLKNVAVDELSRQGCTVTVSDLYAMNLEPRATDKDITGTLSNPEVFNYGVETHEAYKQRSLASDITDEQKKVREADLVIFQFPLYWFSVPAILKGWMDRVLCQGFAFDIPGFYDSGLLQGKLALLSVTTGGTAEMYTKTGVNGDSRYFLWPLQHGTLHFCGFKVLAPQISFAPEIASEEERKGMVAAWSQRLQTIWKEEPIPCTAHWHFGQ

HCT-116 = experiment: Cytotoxicity against human HCT116 cells; assay type: functional, cell-based
RAW264.7 [7] = experiment: Inhibition of iNOS in mouse RAW264.7 cells assessed as inhibition of LPS-induced nitrite production at 100 uM treated 30 mins before LPS challenge measured after 24 hrs by Griess method; assay type: functional

Chain of NAD(P)H dehydrogenase [quinone] 1 (Mus musculus) (Q64669 whole entry): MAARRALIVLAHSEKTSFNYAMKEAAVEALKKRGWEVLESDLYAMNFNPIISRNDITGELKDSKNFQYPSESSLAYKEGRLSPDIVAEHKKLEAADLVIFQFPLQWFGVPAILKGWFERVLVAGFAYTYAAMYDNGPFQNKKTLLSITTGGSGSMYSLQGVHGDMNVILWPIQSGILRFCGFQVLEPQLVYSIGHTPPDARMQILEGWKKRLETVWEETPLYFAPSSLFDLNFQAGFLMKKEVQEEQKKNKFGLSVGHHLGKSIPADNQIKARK

| SMILES | IC50 [1] [µM] | inhibition at 50 µM (RAW264.7 [2]) [%] | CD [3] [µM] | IC50 (RAW264.7 [5]) [µM] | further results |
| --- | --- | --- | --- | --- | --- |
| COc1cc(Br)cc2nc3cc(Cl)c(Cl)cc3nc12 | 2.46 | 0 | 0.012 | – | – |
| Cc1nc2cc3ccccc3cc2nc1C | – | 3.4 | 16.6 | – | Activity [4]: Toxic |
| Brc1cc(Br)c2nc3ccccc3nc2c1 | – | 16.4 | – | – | – |
| Oc1c(Br)cc(Br)c2nc3ccccc3nc12 | – | 70.9 | 27 | 4.2 | – |
| Oc1ccc(Br)c2nc3ccccc3nc12 | 5.19 | 84.7 | – | 31.5 | – |
| C[S+]([O-])CCCCN=C=S (centres undefined) | – | – | 0.23 | – | – |
| COc1cccc2nc3cc4ccccc4cc3nc12 | 2.1 | – | 0.0047 | 7.2 | IC50 (cells): 9.58 µM |
| COc1cccc2nc3ccccc3nc12 | – | 2.4 | – | – | – |
| COc1cccc2nc3cc(Cl)c(Cl)cc3nc12 | 16.2 | 14.6 | 9.42 | – | – |
| c1ccc2cc3nc4ccccc4nc3cc2c1 [BENZO[B]PHENAZINE] | 2.48 | 98.7 | 4.39 | 5.9 | Activity [4]: Toxic |
| COc1cc(Br)cc2nc3ccccc3nc12 | – | 68.6 | – | 26.5 | – |
| COc1ccc(Br)c2nc3cc(C)c(C)cc3nc12 | 17 | 51.9 | 1.83 | 48.9 | – |
| COc1c(Br)cc(Br)c2nc3ccccc3nc12 | – | 24.7 | – | – | – |
| COc1cc(Br)c(Br)c2nc3ccccc3nc12 | – | 70.9 | – | 33.7 | – |
| COc1cc(Br)cc2nc3cc(C)c(C)cc3nc12 | 6.64 | 8.8 | – | – | – |
| Oc1cc(Br)cc2nc3ccccc3nc12 | 5.42 | 86.5 | – | 28.4 | – |
| Oc1cccc2nc3cc(Cl)c(Cl)cc3nc12 | – | 51.2 | 1.85 | 47.2 | – |

| SMILES | IC50 [1] [µM] | inhibition at 50 µM (RAW264.7 [2]) [%] | CD [3] [µM] | IC50 (RAW264.7 [5]) [µM] | further results |
| --- | --- | --- | --- | --- | --- |
| Cc1ccc2nc3ccccc3nc2c1 | – | 38.7 | – | – | – |
| COc1cccc2nc(C)c(C)nc12 | – | 0.8 | – | – | – |
| Cc1cc(Br)cc2nc3ccccc3nc12 | – | 5.5 | – | – | – |
| COc1ccc(Br)c2nc3ccccc3nc12 | – | 47.5 | 4.3 | – | – |
| CS/C(S)=N/CCCC[S+](C)[O-] (centres undefined) | – | – | 0.26 | – | – |
| COc1ccc2nc3ccccc3nc2c1 | – | 12.5 | – | – | – |
| COc1ccc(OC)c2nc3ccccc3nc12 | – | 5 | – | – | – |
| O=[N+]([O-])c1cc(Br)c2nc3ccccc3nc2c1 | 13.1 | 79.7 | – | 7.2 | – |
| Cc1cc2nc3ccccc3nc2cc1C | 9.15 | 49.1 | 23 | – | – |
| COc1cc(Br)c(Br)c2nc3cc(C)c(C)cc3nc12 | 1.39 | 77.7 | – | 34.5 | – |
| Cc1nc2cccc(O)c2nc1C | – | 0 | – | – | Activity [4]: Toxic |
| Cc1nc2c(Br)cc(Br)c(O)c2nc1C | 1.93 | 81.3 | – | 45.6 | IC50 [6]: 2.9 µM |
| COc1cccc2nc3cc(C)c(C)cc3nc12 | – | 53.8 | 11.3 | 47 | – |
| Oc1cc(Br)c(Br)c2nc3ccccc3nc12 | 4.74 | 79.2 | – | 17.4 | – |
| Oc1c(Br)ccc2nc3ccccc3nc12 | 73 | – | – | – | IC50 (HCT-116): 0.1 µM; inhibition at 100 µM (RAW264.7 [7]): 31.5% |
| COc1c(Br)ccc2nc3ccccc3nc12 | – | 44.7 | 29.4 | – | – |
| COc1cc2nc3ccccc3nc2cc1OC | – | 29.4 | – | – | – |
